Experimental data from ChEMBL document CHEMBL5291721, “A preclinical secondary pharmacology resource illuminates target-adverse drug reaction associations of marketed drugs” (Nat Commun, 2023).

Assays:
[1] = biological target: 5-hydroxytryptamine receptor 2B (Homo sapiens, UniProt P41595); assay type: functional, cell-based
D(1A) dopamine receptor = D(1A) dopamine receptor (Homo sapiens, UniProt P21728); assay type: functional, cell-based
[2] = biological target: T1, Alpha-2A adrenergic receptor (Homo sapiens, UniProt P08913); assay type: functional, cell-based
T1 sequence (P08913 whole entry): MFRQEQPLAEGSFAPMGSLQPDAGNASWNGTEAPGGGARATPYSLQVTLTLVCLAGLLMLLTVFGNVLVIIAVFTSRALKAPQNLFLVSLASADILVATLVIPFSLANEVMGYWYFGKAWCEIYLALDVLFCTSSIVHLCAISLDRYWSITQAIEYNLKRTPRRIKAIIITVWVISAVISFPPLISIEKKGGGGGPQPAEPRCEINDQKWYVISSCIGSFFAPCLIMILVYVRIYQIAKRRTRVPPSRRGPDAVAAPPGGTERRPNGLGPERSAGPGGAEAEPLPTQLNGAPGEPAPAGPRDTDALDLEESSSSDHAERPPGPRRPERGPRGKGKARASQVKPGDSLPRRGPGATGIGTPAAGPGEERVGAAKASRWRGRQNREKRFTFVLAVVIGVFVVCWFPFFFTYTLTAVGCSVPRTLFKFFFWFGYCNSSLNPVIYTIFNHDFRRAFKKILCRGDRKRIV

[3] = biological target: Growth hormone secretagogue receptor type 1 (Homo sapiens, UniProt Q92847)
[4] = biological target: T2, Cholecystokinin receptor type A (Homo sapiens, UniProt P32238)
T2 sequence (P32238 whole entry): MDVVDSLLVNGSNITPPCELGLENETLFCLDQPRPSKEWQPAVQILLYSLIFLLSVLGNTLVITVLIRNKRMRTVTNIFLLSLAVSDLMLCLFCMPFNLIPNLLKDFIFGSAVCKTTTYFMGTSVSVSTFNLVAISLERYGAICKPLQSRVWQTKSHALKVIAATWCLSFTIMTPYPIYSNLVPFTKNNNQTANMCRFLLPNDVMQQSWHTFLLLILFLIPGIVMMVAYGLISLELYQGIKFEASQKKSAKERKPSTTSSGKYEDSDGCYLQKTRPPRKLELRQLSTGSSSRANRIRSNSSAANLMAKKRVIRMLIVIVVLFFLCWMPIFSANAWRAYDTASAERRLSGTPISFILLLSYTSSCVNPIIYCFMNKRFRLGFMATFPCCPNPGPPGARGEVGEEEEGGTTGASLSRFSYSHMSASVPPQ

[5] = biological target: cGMP-inhibited 3',5'-cyclic phosphodiesterase 3A (Homo sapiens, UniProt Q14432); assay type: functional
[6] = biological target: T3, 5-hydroxytryptamine receptor 2C (Homo sapiens, UniProt P28335)
T3 sequence (P28335 whole entry): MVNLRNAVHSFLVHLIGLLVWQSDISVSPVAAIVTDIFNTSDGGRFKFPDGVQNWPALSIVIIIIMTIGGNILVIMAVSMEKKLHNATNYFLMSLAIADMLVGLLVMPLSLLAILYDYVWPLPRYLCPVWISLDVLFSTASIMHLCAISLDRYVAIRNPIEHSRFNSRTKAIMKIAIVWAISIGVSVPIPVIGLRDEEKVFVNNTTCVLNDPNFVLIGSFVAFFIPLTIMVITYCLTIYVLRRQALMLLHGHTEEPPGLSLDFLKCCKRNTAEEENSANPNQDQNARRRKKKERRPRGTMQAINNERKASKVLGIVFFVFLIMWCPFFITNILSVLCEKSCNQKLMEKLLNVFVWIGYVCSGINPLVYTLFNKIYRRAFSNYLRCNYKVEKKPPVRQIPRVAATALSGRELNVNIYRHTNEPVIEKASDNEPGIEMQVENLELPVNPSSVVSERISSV

Adenosine receptor A3 = biological target: T4, Adenosine receptor A3 (Homo sapiens, UniProt P0DMS8)
T4 sequence (P0DMS8 whole entry): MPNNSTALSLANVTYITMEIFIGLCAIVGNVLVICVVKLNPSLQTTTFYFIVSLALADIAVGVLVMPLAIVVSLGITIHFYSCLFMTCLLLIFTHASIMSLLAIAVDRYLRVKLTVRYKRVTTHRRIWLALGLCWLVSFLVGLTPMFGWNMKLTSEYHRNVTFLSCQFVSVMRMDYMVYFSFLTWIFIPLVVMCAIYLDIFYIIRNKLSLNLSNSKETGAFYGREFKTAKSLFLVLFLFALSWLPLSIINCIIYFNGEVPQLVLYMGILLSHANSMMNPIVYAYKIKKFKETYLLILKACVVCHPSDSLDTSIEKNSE

[7] = biological target: Delta-type opioid receptor (Homo sapiens, UniProt P41143)
[8] = biological target: T5, 5-hydroxytryptamine receptor 3A (Homo sapiens, UniProt P46098); assay type: functional
T5 sequence (P46098 whole entry): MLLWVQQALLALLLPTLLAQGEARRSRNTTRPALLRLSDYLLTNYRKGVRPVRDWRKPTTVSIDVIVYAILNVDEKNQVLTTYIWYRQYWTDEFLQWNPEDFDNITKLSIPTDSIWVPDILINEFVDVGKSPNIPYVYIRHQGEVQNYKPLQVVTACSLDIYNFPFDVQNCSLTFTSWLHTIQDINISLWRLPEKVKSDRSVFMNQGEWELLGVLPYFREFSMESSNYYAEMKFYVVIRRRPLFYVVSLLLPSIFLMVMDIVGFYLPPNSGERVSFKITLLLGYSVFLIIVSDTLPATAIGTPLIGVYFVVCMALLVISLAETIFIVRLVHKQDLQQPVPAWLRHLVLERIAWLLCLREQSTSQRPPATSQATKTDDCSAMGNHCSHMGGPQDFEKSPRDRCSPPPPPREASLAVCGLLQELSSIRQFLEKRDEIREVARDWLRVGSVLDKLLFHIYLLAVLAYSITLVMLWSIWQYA

[9] = biological target: Voltage-gated inwardly rectifying potassium channel KCNH2 (Homo sapiens, UniProt Q12809); assay type: functional; conditions: read-out: AC50
[10] = biological target: 3',5'-cyclic-AMP phosphodiesterase 4D (Homo sapiens, UniProt Q08499); assay type: functional
Motilin receptor = Motilin receptor (Homo sapiens, UniProt O43193)
[11] = biological target: T1, Alpha-2A adrenergic receptor; assay type: functional, cell-based; remark: listed apart in the source
Melanocortin receptor 3 = Melanocortin receptor 3 (Homo sapiens, UniProt P41968)
Further: assay procedure not described here.

Chain of cGMP-inhibited 3',5'-cyclic phosphodiesterase 3A (Q14432 whole entry): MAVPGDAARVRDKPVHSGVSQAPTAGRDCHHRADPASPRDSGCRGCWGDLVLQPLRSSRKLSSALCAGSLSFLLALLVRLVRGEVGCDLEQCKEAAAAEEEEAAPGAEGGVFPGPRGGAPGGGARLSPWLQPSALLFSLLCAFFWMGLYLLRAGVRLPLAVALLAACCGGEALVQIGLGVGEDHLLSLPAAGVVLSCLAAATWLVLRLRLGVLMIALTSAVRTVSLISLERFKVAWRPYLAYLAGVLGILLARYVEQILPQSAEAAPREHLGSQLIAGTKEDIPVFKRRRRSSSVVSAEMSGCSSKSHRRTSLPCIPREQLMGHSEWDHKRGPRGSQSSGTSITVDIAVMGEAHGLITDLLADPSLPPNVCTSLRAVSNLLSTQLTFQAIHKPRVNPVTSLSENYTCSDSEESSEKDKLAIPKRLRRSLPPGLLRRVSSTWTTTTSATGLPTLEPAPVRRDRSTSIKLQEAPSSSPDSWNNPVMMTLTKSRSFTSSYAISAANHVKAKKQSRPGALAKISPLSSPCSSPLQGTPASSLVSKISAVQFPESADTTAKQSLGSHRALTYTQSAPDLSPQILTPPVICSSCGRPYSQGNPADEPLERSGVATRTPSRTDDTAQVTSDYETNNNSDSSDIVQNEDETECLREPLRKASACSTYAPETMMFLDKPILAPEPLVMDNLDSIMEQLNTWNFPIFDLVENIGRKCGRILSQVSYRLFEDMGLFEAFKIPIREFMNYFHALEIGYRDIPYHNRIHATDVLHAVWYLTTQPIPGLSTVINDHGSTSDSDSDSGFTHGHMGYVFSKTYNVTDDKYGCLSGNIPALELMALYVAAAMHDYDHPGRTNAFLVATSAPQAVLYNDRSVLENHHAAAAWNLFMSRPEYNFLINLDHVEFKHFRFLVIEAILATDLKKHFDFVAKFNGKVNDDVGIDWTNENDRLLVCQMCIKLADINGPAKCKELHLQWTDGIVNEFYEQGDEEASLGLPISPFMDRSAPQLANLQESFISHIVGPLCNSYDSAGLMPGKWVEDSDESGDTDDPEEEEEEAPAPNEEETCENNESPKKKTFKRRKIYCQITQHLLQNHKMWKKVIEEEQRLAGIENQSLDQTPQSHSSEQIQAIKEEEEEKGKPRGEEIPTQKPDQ
Chain of Motilin receptor (O43193 whole entry): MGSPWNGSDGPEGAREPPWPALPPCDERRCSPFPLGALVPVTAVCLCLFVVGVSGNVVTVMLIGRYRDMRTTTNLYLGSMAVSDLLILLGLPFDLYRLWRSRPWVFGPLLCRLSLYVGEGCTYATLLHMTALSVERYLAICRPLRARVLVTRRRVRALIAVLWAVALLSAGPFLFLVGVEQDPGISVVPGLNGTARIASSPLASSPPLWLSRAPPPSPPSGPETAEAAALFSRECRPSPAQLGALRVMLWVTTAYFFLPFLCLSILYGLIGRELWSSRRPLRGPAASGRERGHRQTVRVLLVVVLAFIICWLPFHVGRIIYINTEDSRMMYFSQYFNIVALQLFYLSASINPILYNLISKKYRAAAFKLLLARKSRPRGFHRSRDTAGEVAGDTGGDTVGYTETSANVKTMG
Chain of 5-hydroxytryptamine receptor 2B (P41595 whole entry): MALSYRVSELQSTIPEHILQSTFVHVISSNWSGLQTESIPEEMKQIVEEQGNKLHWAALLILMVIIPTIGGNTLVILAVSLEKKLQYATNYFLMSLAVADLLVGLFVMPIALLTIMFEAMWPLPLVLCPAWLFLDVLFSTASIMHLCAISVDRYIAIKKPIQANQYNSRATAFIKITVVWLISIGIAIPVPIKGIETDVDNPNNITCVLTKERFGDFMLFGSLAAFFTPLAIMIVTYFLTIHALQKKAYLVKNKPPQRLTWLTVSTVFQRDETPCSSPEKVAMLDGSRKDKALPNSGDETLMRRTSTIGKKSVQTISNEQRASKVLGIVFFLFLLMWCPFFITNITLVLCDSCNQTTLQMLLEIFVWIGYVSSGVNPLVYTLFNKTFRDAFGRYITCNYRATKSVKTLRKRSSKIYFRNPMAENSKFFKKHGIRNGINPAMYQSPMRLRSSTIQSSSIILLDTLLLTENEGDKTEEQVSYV
Chain of Voltage-gated inwardly rectifying potassium channel KCNH2 (Q12809 whole entry): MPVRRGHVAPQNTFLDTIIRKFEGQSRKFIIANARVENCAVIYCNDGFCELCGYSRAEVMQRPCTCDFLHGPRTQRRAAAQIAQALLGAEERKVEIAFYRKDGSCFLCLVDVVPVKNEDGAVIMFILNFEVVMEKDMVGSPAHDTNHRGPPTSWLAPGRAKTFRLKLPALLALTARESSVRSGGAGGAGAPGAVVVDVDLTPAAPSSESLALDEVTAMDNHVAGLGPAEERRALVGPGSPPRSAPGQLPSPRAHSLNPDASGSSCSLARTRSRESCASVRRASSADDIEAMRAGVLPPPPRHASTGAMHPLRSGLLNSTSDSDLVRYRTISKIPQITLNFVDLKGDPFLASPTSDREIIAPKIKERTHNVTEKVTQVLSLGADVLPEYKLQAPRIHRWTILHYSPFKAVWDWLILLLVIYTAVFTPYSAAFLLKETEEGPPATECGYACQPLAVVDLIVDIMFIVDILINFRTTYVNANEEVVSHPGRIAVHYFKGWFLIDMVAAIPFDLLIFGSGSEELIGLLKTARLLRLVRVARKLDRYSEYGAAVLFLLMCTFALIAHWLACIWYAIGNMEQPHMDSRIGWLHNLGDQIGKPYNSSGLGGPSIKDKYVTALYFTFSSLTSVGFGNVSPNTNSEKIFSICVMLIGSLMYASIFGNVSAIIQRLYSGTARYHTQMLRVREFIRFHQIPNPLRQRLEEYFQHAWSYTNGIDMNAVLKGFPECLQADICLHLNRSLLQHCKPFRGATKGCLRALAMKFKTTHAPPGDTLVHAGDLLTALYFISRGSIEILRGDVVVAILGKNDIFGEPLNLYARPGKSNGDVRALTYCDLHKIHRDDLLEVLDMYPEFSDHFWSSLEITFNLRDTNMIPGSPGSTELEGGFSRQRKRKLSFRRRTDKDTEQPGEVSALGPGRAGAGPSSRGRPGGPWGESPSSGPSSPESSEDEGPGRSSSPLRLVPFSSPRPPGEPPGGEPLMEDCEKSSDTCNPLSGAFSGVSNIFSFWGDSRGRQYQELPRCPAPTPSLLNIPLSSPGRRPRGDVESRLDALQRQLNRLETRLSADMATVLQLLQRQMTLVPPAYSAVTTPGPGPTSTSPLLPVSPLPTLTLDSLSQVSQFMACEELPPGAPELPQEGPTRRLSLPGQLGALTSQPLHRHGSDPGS
Chain of 3',5'-cyclic-AMP phosphodiesterase 4D (Q08499 whole entry): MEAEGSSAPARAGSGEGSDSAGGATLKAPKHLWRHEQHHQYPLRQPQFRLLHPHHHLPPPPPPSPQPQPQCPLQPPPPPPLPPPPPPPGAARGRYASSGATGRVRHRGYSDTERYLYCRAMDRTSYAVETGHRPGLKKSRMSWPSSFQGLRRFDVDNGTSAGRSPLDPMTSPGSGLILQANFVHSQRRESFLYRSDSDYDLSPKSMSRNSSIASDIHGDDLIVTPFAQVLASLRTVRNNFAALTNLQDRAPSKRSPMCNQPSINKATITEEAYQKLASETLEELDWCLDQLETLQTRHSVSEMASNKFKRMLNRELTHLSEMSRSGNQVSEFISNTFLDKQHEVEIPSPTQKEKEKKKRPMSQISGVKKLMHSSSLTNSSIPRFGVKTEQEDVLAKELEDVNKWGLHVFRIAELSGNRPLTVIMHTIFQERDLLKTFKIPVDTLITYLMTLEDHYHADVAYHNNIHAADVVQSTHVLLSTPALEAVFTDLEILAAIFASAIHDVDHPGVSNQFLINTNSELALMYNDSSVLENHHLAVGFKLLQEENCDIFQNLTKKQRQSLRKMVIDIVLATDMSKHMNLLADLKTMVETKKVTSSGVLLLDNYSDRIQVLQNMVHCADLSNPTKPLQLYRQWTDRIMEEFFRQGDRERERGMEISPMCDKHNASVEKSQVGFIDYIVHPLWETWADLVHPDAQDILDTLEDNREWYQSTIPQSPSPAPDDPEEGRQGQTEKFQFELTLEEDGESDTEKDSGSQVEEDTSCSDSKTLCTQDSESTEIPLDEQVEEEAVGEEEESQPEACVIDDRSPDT
Chain of Growth hormone secretagogue receptor type 1 (Q92847 whole entry): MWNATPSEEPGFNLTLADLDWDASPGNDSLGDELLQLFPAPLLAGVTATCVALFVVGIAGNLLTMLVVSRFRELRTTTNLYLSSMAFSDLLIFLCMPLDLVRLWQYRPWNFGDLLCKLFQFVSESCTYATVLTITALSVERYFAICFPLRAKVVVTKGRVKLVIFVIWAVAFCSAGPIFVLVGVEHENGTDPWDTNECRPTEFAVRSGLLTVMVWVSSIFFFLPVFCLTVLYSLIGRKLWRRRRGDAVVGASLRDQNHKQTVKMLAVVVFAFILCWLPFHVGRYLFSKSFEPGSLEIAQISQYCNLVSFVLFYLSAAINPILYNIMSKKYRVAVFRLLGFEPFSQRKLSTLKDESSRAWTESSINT
Chain of Delta-type opioid receptor (P41143 whole entry): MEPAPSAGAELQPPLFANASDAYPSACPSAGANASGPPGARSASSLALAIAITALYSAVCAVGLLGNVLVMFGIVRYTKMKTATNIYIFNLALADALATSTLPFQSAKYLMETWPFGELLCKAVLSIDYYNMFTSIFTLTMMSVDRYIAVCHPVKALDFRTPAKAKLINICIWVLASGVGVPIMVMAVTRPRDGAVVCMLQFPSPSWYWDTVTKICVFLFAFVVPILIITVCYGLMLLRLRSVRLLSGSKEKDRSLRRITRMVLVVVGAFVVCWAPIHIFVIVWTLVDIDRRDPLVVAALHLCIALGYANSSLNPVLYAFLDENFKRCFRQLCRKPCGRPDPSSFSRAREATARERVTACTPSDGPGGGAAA

For CN(C)CCOC(c1ccc(Cl)cc1)c1ccccn1 (stereo not given) [CARBINOXAMINE], the AC50 [1] was over 30 µM, the AC50 (D(1A) dopamine receptor) was over 30 µM and the AC50 [2] was over 30 µM. The AC50 [3] was over 30 µM, the AC50 [4] was over 30 µM and the AC50 [5] was over 30 µM. The AC50 [6] was over 30 µM, the AC50 (Adenosine receptor A3) was over 30 µM and the AC50 [7] was over 30 µM. For the same compound, the AC50 [8] was over 30 µM, the AC50 [9] was 1.3 µM and the AC50 [10] was over 30 µM. It also gave an AC50 (Motilin receptor) of over 30 µM, an AC50 [11] of over 30 µM and an AC50 (Melanocortin receptor 3) of over 30 µM.
For CCN(CC)CCn1c(=O)c(Cc2ccc(OC)cc2)nc2ccccc21 [CAROVERINE], the AC50 [1] was over 30 µM, the AC50 (D(1A) dopamine receptor) was over 30 µM and the AC50 [2] was over 30 µM. The AC50 [3] was 6.47 µM, the AC50 [4] was over 30 µM and the AC50 [5] was over 30 µM. It also gave an AC50 [6] of 27 µM, an AC50 (Adenosine receptor A3) of 27 µM and an AC50 [7] of 26 µM. For the same compound, the AC50 [8] was 29 µM, the AC50 [9] was 0.16 µM and the AC50 [10] was 7.11 µM. It also gave an AC50 (Motilin receptor) of 16.8 µM, an AC50 [11] of over 30 µM and an AC50 (Melanocortin receptor 3) of over 30 µM.
For C[C@H](CCC(=O)O)[C@H]1CC[C@H]2[C@@H]3[C@H](O)C[C@@H]4C[C@H](O)CC[C@]4(C)[C@H]3CC[C@]12C [CHENODIOL], the AC50 [1] was over 30 µM, the AC50 (D(1A) dopamine receptor) was over 30 µM and the AC50 [2] was over 30 µM. For the same compound, the AC50 [3] was over 30 µM, the AC50 [4] was over 30 µM and the AC50 [5] was over 30 µM. For the same compound, the AC50 [6] was over 30 µM, the AC50 (Adenosine receptor A3) was over 30 µM and the AC50 [7] was over 30 µM. For the same compound, the AC50 [8] was over 30 µM, the AC50 [9] was over 30 µM and the AC50 [10] was over 30 µM. It also gave an AC50 (Motilin receptor) of over 30 µM, an AC50 [11] of 3 µM and an AC50 (Melanocortin receptor 3) of over 30 µM.
With O=C(O)[C@H]1/C(=C/CO)O[C@@H]2CC(=O)N21 [CLAVULANIC ACID] the AC50 [1] was over 30 µM, the AC50 (D(1A) dopamine receptor) was over 30 µM and the AC50 [2] was over 30 µM. It also gave an AC50 [3] of over 30 µM, an AC50 [4] of over 30 µM and an AC50 [5] of over 30 µM. For the same compound, the AC50 [6] was over 30 µM, the AC50 (Adenosine receptor A3) was over 30 µM and the AC50 [7] was over 30 µM. The AC50 [8] was over 30 µM, the AC50 [9] was over 30 µM and the AC50 [10] was over 30 µM. For the same compound, the AC50 (Motilin receptor) was over 30 µM, the AC50 [11] was over 30 µM and the AC50 (Melanocortin receptor 3) was over 30 µM.
For CC(C)/N=c1\cc2n(-c3ccc(Cl)cc3)c3ccccc3nc-2cc1Nc1ccc(Cl)cc1 [CLOFAZIMINE], the AC50 [1] was over 30 µM, the AC50 (D(1A) dopamine receptor) was over 30 µM and the AC50 [2] was over 30 µM. It also gave an AC50 [3] of 0.92 µM, an AC50 [4] of over 30 µM and an AC50 [5] of over 30 µM. For the same compound, the AC50 [6] was over 30 µM, the AC50 (Adenosine receptor A3) was over 30 µM and the AC50 [7] was 26 µM. For the same compound, the AC50 [8] was over 30 µM, the AC50 [9] was 0.958 µM and the AC50 [10] was 17.5 µM. For the same compound, the AC50 (Motilin receptor) was over 30 µM, the AC50 [11] was over 30 µM and the AC50 (Melanocortin receptor 3) was over 30 µM.
For COC(=O)CCc1ccc(OCC(O)CNC(C)C)cc1 (stereo not given) [ESMOLOL], the AC50 [1] was over 30 µM, the AC50 (D(1A) dopamine receptor) was over 30 µM and the AC50 [2] was over 30 µM. It also gave an AC50 [3] of over 30 µM, an AC50 [4] of over 30 µM and an AC50 [5] of over 30 µM. For the same compound, the AC50 [6] was over 30 µM, the AC50 (Adenosine receptor A3) was over 30 µM and the AC50 [7] was over 30 µM. For the same compound, the AC50 [8] was over 30 µM, the AC50 [9] was over 30 µM and the AC50 [10] was over 30 µM. It also gave an AC50 (Motilin receptor) of over 30 µM, an AC50 [11] of over 30 µM and an AC50 (Melanocortin receptor 3) of over 30 µM.
For C[C@]12CCC(=O)C=C1CC[C@H]1[C@@H]3CC[C@](O)(C(=O)CO)[C@@]3(C)C[C@H](O)[C@@]12F [FLUDROCORTISONE], the AC50 [1] was over 10 µM, the AC50 (D(1A) dopamine receptor) was over 10 µM and the AC50 [2] was over 10 µM. For the same compound, the AC50 [3] was over 30 µM, the AC50 [4] was over 30 µM and the AC50 [5] was over 30 µM. The AC50 [6] was over 30 µM, the AC50 (Adenosine receptor A3) was over 30 µM and the AC50 [7] was over 30 µM. The AC50 [8] was over 30 µM, the AC50 [9] was over 30 µM and the AC50 [10] was over 30 µM. For the same compound, the AC50 (Motilin receptor) was over 10 µM, the AC50 [11] was over 10 µM and the AC50 (Melanocortin receptor 3) was over 30 µM.
